Test results: US6228602A, “Competitive apo-peroxidase assay” (Bayer Corporation, priority 1999, dated 2001)
One block for each compound: values may come before it.

Tests used:
[1] = Metal porphyrin study: metal porphyrin in water without apo-enzyme (Example IV); format: biochemical; conditions: HEMASTIX no lepidine/pH 7.5
Method: (§1) In this example, other metal porphyrins were tested for their ability to reactivate different types of apo-peroxidases. Metals such as Fe, Cu, Mg, Zn, Ni, Mn, Co and Pd were complexed to hematin and added to the peroxidase detecting agent. Metals such as Mn, Fe, Cu and Co and porphyrins other than hematin, i.e. deuteroporphyrin and coproporphyrin were also shown to provide the desired response.

apo-POD [2] = biological target: T1, apo-POD (Armoracia rusticana, UniProt P00433); experiment: Metal porphyrin study: reactivation of apo-peroxidase (Example IV); format: biochemical, horse radish; conditions: for % R @ 90 second read time on CLINITEK-200+, mean: 12 μM apo-POD, HEMASTIX no lepidine/pH 7.5
T1 construct: purchased Sigma Chemical Company, St. Louis, Mo
T1 sequence (P00433 31-353): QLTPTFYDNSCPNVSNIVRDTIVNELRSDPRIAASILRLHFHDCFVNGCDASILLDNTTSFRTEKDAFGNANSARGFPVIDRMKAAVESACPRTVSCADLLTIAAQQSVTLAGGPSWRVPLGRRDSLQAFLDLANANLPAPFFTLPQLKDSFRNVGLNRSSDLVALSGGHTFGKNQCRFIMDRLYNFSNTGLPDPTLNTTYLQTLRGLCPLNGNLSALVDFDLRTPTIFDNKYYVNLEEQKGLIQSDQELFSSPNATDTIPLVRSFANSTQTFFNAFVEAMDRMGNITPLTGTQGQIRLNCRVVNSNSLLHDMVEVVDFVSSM
Method: as §1

Apoglucose oxidase = conditions: apoglucose oxidase and FAD; U.S. Pat. No. 4,493,890; read-out: binding constant; cited from earlier work
apo-Hb = biological target: T2, apo-Hb (Homo sapiens, UniProt P68871+P69905); experiment: Metal porphyrin study: reactivation of apo-hemoglobin (Example IV); format: biochemical; conditions: 12 μM apo-Hb, 12 μM metal porphyrin, HEMASTIX no lepidine/pH 7.5
T2 construct: made in house
Method: as §1
A 0.7% solution of hemoglobin was lowered to pH 1.5 and the resulting solution was ultrafiltered through a 10 KDa cutoff membrane followed by several changes of water. Filtered material was reconstituted into water. The apo-hemoglobin passed […]. […] It produced a HEMASTIX® result of +++++ indicating a high concentration of hemoglobin.

apo-POD [3] = biological target: T1, apo-POD; experiment: Interference study with peroxidase detecting dry reagent (Example III); format: biochemical, horse radish
Method: In this example, a peroxidase detecting dry reagent with resistance to 0.81 mg/dL hemoglobin (or myoglobin) and 25 mg/dL ascorbate and sufficient sensitivity to detect apo-peroxidase reactivation was used. […]
The reagent was tested by dipping it into solutions containing the interfering substance with and without Fe hematin. […]

apo-peroxidase = biological target: T3, apo-peroxidase (Armoracia rusticana, UniProt P00433); experiment: Proximity effect: antibody binding of hematin-antigen conjugate prevents apo-enzyme reactivation (Example II); format: biochemical, horse radish; conditions: for Reagent Response (% R @ 30 Sec) @ 660 nm: 36 nM apo-peroxidase, 36 nM antigen-hematin, 36 nM antibody
T3 construct: purchased Sigma Chemical Company, St. Louis, Mo
T3 sequence (P00433 31-353): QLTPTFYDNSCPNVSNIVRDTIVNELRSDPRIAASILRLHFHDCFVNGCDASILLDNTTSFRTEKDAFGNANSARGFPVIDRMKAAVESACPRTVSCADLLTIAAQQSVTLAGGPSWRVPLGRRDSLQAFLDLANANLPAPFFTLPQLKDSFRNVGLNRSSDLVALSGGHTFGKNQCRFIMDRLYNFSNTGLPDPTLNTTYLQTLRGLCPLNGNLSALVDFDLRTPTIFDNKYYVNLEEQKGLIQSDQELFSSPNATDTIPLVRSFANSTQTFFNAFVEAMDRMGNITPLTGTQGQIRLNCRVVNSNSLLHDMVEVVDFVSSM
Method: A 10 μL sample of hematin-BJP^1 (3.6 μM, 8.61 mg/dL in phosphate buffered saline), anti-BJP (3.6 μM, 52.56 mg/dL in PBS) and BJP (3.6 μM, 8.28 mg/dL in phosphate buffered saline) were mixed with 10 μL apo-POD (3.6 μM, 14.0 mg/dL in phosphate buffered saline) and […] phosphate buffered saline. The solution was incubated for 5 to 10 minutes at room temperature and the response to HEMASTIX® reagent dipped in the test solution was measured using a CLINITEK®-200 instrument. The response of HEMASTIX® reagent with the phosphate buffered saline solution containing hematin alone was 65.7% reflectance at 1 minute. Sheep anti-human BJP monoclonal antibody was obtained from The Binding Site Limited of Birmingham, England.
In this example, antibody binding of the hematin-antigen conjugate is shown to prevent apo-enzyme reactivation (Table 4). The data set out in Table 4 were generated by using the HEMASTIX® formula with lepidine but lacking apo-peroxidase, antigen-hematin antigen and antibody. The later were mixed in solution and reagent strips with the modified HEMASTIX® formula were immediately dipped into the solution and read using a CLINITEK™-200+ reflectance spectrometer.

apo-POD [4] = biological target: T1, apo-POD; experiment: Detection limit study: peroxidase activity / apo-POD reactivation read with HEMASTIX reagent (Example I); format: biochemical, horse radish; conditions: 3.6 nM
Method: In this example apo-peroxidase is compared to hematin and hematin-antigen conjugates to determine the detectable concentrations and effects of conjugation and antigen molecular weight on apo-enzyme reactivations. Solutions containing combinations of apo-POD, Fe^+3 hematin and hematin conjugate were tested for peroxidase activity. Peroxidase activity was measured in urine using HEMASTIX® reagent as set out in Table 3. This reagent is similar to that set out in Table 1 but lacking the metal porphyrin conjugate, competitive binder and apo-peroxidase while containing lepidine as an activator.
A 10 μL portion of hematin (3.6 μM, 0.23 mg/dL in phosphate buffered saline) or a 10 μL hematin-BJP allotment (3.6 μM, 8.61 mg/dL in phosphate buffered saline) was mixed with 10 μL apo-POD (3.6 μM, 14.0 mg/dL in phosphate buffered saline) all in 980 μL of phosphate buffered saline and then diluted to the desired concentration with additional phosphate buffered saline. The solution was incubated for 1 minute at 40° C. or at room temperature. The response of HEMASTIX® reagent dipped into the test solution was measured on a CLINITEK™-200 reflectance instrument. The response of the reagent set out in Table 1 on the phosphate buffered solution alone was 65.2% reflectance at 1 minute.
Apo-horse radish peroxidase was obtained from Sigma Chemical Company of St. Louis, Mo. The phosphate buffered solution was prepared by adding 0.69 g monobasic sodium phosphate, 0.71 g of dibasic sodium phosphate and 0.45 g of sodium chloride to 100 mL of water.
The HEMASTIX® reagent referred to earlier with the addition of lepidine and at a lower pH when compared to the formula of Table 1 was applied to the strip in a two dip system of the following composition and used in Examples I to IV (Table 3).

apo-POD [5] = biological target: T1, apo-POD; experiment: as above; format: biochemical, horse radish; conditions: 1 minute @ 30° C.

T2 sequence (P69905 2-142 limits assumed): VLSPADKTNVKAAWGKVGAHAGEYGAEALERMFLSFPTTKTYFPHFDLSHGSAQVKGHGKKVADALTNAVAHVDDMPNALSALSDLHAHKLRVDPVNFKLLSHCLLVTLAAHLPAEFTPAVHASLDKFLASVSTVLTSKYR
T2 sequence (P68871 2-147 limits assumed): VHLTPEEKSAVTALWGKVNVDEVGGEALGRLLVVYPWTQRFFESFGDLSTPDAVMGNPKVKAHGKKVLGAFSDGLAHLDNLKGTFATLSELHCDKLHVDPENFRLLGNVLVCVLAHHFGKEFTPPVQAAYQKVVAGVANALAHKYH

% R @ 90 second read time on CLINITEK-200+, mean ([1]; 12 μM metal porphyrin): 71.5 % R
% R @ 90 second read time on CLINITEK-200+, mean (apo-POD [2]; 12 μM metal porphyrin): 50.9 % R
% R @ 90 second read time on CLINITEK-200+, mean (apo-Hb): 45.3 % R
% R response, mean (apo-POD [3]; +3.6 μM Fe Hematin, HEMASTIX (lepidine/pH 6.3), Water): 8.8%
% R response, mean (apo-POD [3]; +3.6 μM Fe Hematin, HEMASTIX (no lepidine/pH 7.5), Water): 79.2%
% R response, mean (apo-POD [3]; +12 μM Fe Hematin/12 μM apo-POD, HEMASTIX (lepidine/pH 6.3), Water): 4.1%
% R response, mean (apo-POD [3]; +12 μM Fe Hematin/12 μM apo-POD, HEMASTIX (no lepidine/pH 7.5), 25 mg/dL Ascorbic): 55.3%
% R response, mean (apo-POD [3]; +12 μM Fe Hematin/12 μM apo-POD, HEMASTIX (no lepidine/pH 7.5), Water): 54.0%
% R response, mean (apo-POD [3]; +12 μM Fe Hematin, HEMASTIX (lepidine/pH 6.3), 25 mg/dL Ascorbic): 5.3%
% R response, mean (apo-POD [3]; +12 μM Fe Hematin, HEMASTIX (lepidine/pH 6.3), Water): 6.4%
% R response, mean (apo-POD [3]; +12 μM Fe Hematin, HEMASTIX (no lepidine/pH 7.5), 25 mg/dL Ascorbic): 73.2%
% R response, mean (apo-POD [3]; +12 μM Fe Hematin, HEMASTIX (no lepidine/pH 7.5), Water): 72.4%
% R response, mean (apo-POD [3]; +36 μM Fe Hematin, HEMASTIX (lepidine/pH 6.3), Water): 3.1%
SMILES: C=CC1=C(C)c2cc3[n-]c(cc4[n-]c(cc5nc(cc1n2)C(C)=C5C=C)c(C)c4CCC(=O)O)c(CCC(=O)O)c3C.O.[Fe+2] [Fe Hematin]

% R @ 90 second read time on CLINITEK-200+, mean ([1]; 12 μM metal porphyrin): 72.2 % R
% R @ 90 second read time on CLINITEK-200+, mean (apo-POD [2]; 12 μM metal porphyrin): 56.1 % R
% R @ 90 second read time on CLINITEK-200+, mean (apo-Hb): 49.2 % R
SMILES: CC1=Cc2cc3[n-]c(cc4nc(cc5[n-]c(cc1n2)cc5C)C(C)=C4CCC(=O)O)c(CCC(=O)O)c3C.[Fe+2] [Fe deuteroporphyrin]

% R @ 90 second read time on CLINITEK-200+, mean ([1]; 120 μM metal porphyrin): 71.3 % R
% R @ 90 second read time on CLINITEK-200+, mean (apo-POD [2]; 120 μM metal porphyrin): 70.7 % R
SMILES: CC1=Cc2cc3[n-]c(cc4nc(cc5[n-]c(cc1n2)cc5C)C(C)=C4CCC(=O)O)c(CCC(=O)O)c3C.[Zn+2] [Zn deuteroporphyrin]

peroxidase activity (in words) (apo-POD [4]; in the presence of apo-POD): detectable at 3.6 nM
peroxidase activity (in words) (apo-POD [4]; without partner): not detectable
Mean % Reflectance @ 660 nm (apo-POD [5]; 3.6 nM, antigen IgG, hematin, antigen-hematin or apo-POD alone (Cases A, B, E)): 64.9%
Mean % Reflectance @ 660 nm (apo-POD [5]; 3.6 nM, antigen IgG, with apo-POD (Cases C, D)): 46.3%
Mean % Reflectance @ 660 nm (apo-POD [5]; (3.6 nM; antigen Sulfmethazine), hematin, antigen-hematin or apo-POD alone (Cases A, B, E)): 63.4%
Mean % Reflectance @ 660 nm (apo-POD [5]; (3.6 nM; antigen Sulfmethazine), with apo-POD (Cases C, D)): 48.9%
Mean % Reflectance @ 660 nm (apo-POD [5]; (3.6 mM; antigen BJP), hematin, antigen-hematin or apo-POD alone (Cases A, B, E)): 65.1%
Mean % Reflectance @ 660 nm (apo-POD [5]; (3.6 mM; antigen BJP), with apo-POD (Cases C, D)): 55.3%
response of HEMASTIX reagent, % reflectance (apo-peroxidase; phosphate buffered saline solution containing hematin alone, 1 minute): 65.7 % reflectance
SMILES: C=CC1=C(C)c2cc3[n-]c(cc4[n-]c(cc5nc(cc1n2)C(C)=C5C=C)c(C)c4CCC(=O)O)c(CCC(=O)O)c3C.O.[Fe+2] [hematin]

Further lines, the compound ahead of its results:

SMILES: CC1=Cc2cc3[n-]c(cc4nc(cc5[n-]c(cc1n2)cc5C)C(C)=C4CCC(=O)O)c(CCC(=O)O)c3C.[Cu+2] [Cu deuteroporphyrin]
% R @ 90 second read time on CLINITEK-200+, mean ([1]; 120 μM metal porphyrin): 73.7 % R
% R @ 90 second read time on CLINITEK-200+, mean (apo-POD [2]; 120 μM metal porphyrin): 57.2 % R
response / activity with apo-peroxidase (in words) (apo-POD [2]; metal porphyrin study): responses similar to those obtained for Fe

SMILES: Cc1cc2nc3c(=O)[nH]c(=O)nc-3n(C[C@H](O)[C@H](O)[C@H](O)COP(=O)(O)OP(=O)(O)OC[C@H]3O[C@@H](n4cnc5c(N)ncnc54)[C@H](O)[C@@H]3O)c2cc1C [FAD, flavin adenine dinucleotide]
Kd (Apoglucose oxidase): ~100 pM

SMILES: CC1=Cc2cc3[n-]c(cc4nc(cc5[n-]c(cc1n2)cc5C)C(C)=C4CCC(=O)O)c(CCC(=O)O)c3C.[Mg+2] [Mg deuteroporphyrin]
% R @ 90 second read time on CLINITEK-200+, mean ([1]; 120 μM metal porphyrin): 74.4 % R
% R @ 90 second read time on CLINITEK-200+, mean (apo-POD [2]; 120 μM metal porphyrin): 70.9 % R

SMILES: Cc1cc(C)nc(NS(=O)(=O)c2ccc(N)cc2)n1 [Sulfamethazine]
Reagent Response (% R @ 30 Sec) @ 660 nm (apo-peroxidase; 24 nM antigen): 21.3 % R
Reagent Response (% R @ 30 Sec) @ 660 nm (apo-peroxidase; free antigen none): 23.6 % R
prevention of apo-enzyme reactivation by antibody (in words) (apo-peroxidase; antigen-hematin plus antibody): did not prevent apo-enzyme reactivation
